Source: patent publication US20210128554A1, “ANTI-FLAVIVIRIDAE ACTIVITY OF ANTI-RETROVIRAL NON-NUCLEOSIDE (NNRTIS) AND NUCLEOSIDE REVERSE TRANSCRIPTASE INHIBITORS (NNRTIS)” (priority 2016, published 2021)

Test system: Zika virus
Assay: ZIKV copy numbers released by primary human fetal astrocytes treated with NNRTIs (Real-time Q-RT-PCR)
Format: cell-based
Conditions: ZIKV 0.1 MOI, 5, 10, and 25 μM at 24, 48, 72 hrs, culture media at 96 hrs
Protocol: FIG. 6 is a graph showing that Zika virus replication is suppressed by antiretroviral HIV-1 non-nucleoside reverse transcriptase inhibitors (NNRTIs) in primary astrocytes: Primary human fetal astrocytes were plated in 6 well tissue culture dishes and infected with ZIKV at 0.1 MOI. At 24, 48, and 72 hrs post-infections, cells were treated with increasing concentrations of anti-retroviral non-nucleoside reverse transcriptase inhibitors Rilpivirine, Efavirenz, and Etravirine at 5, 10, and 25 μM concentrations. Culture media of the infected cells were collected at 96 hrs post-infections and subjected to Real-time Q-RT-PCR for the detection and quantification of ZIKV copy numbers released by infected cells.

SMILES | Zika virus replication (ZIKV copy numbers released by infected cells)
O=C1Nc2ccc(Cl)cc2[C@@](C#CC2CC2)(C(F)(F)F)O1 [Efavirenz] | suppressed
Cc1cc(C#N)cc(C)c1Oc1nc(Nc2ccc(C#N)cc2)nc(N)c1Br [Etravirine] | suppressed
